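Test compounds were applied to cells in 96-well plates for 48 hours at 5 doses. The concentration for 50% growth inhibition is given as GI50.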 Activity calls are given as the source filed them. Rule as the data show it: active = GI50 up to about 1.1 µM and inactive = higher.
Assays:
Assay in all cases: inhibition of tumour cell growth, NCI panel, 48 h
DLD-1 = system: DLD-1
DMS-273 = system: DMS-273
HCT-116 = system: HCT-116
HOP-62 = system: HOP-62
IGROV-1 = system: IGROV-1
KM-20L2 = system: KM-20L2
KM12 = system: KM12
OVCAR-3 = system: OVCAR-3
SF-268 = system: SF-268
SF-295 = system: SF-295
SF-539 = system: SF-539
U-251 = system: U-251
UACC-257 = system: UACC-257
UACC-62 = system: UACC-62
XF498 = system: XF498
DMS-114 = system: DMS-114
LXFL 529 = system: LXFL 529
TK-10 = system: TK-10

| Structure (SMILES) | GI50 (DLD-1) | GI50 (DMS-273) | GI50 (HCT-116) | GI50 (HOP-62) | GI50 (IGROV-1) | GI50 (KM-20L2) | GI50 (KM12) | GI50 (OVCAR-3) | GI50 (SF-268) | GI50 (SF-295) | GI50 (SF-539) | GI50 (U-251) | GI50 (UACC-257) | GI50 (UACC-62) | GI50 (XF498) | GI50 (DMS-114) | GI50 (LXFL 529) | GI50 (TK-10) |
| --- | --- | --- | --- | --- | --- | --- | --- | --- | --- | --- | --- | --- | --- | --- | --- | --- | --- | --- |
| COCOc1ccc(OC)cc1 | > 100 µM (inactive) | > 100 µM (inactive) | > 100 µM (inactive) | > 100 µM (inactive) | > 100 µM (inactive) | > 100 µM (inactive) | > 100 µM (inactive) | > 100 µM (inactive) | > 100 µM (inactive) | > 100 µM (inactive) | > 100 µM (inactive) | > 100 µM (inactive) | > 100 µM (inactive) | > 100 µM (inactive) | > 100 µM (inactive) |  |  |  |
| CC(C)COC(=O)N1N=NC2C3CC(=O)C(O3)C21 (stereo unspecified) | > 100 µM (inactive) | > 100 µM (inactive) | > 100 µM (inactive) | > 100 µM (inactive) | > 100 µM (inactive) | > 100 µM (inactive) | > 100 µM (inactive) | > 100 µM (inactive) | > 100 µM (inactive) | > 100 µM (inactive) | > 100 µM (inactive) | > 100 µM (inactive) | > 100 µM (inactive) | > 100 µM (inactive) |  | > 100 µM (inactive) | > 100 µM (inactive) | 22.9 µM (inactive) |
| N#Cc1ccc([N+](=O)[O-])cc1NC(N)=S |  | > 100 µM (inactive) | > 100 µM (inactive) | > 100 µM (inactive) | > 100 µM (inactive) | > 100 µM (inactive) | > 100 µM (inactive) | > 100 µM (inactive) | > 100 µM (inactive) | > 100 µM (inactive) | > 100 µM (inactive) | > 100 µM (inactive) |  |  | > 100 µM (inactive) |  | 16.3 µM (inactive) |  |
| Cc1ccc2c(c1-c1ccccc1)C(=O)OC2 | > 100 µM (inactive) | > 100 µM (inactive) | > 100 µM (inactive) | > 100 µM (inactive) | > 100 µM (inactive) | 20.4 µM (inactive) | > 100 µM (inactive) | 76.7 µM (inactive) | > 100 µM (inactive) |  |  | > 100 µM (inactive) | > 100 µM (inactive) | 28.7 µM (inactive) |  | 99.3 µM (inactive) | > 100 µM (inactive) | > 100 µM (inactive) |
| CCc1cccc(CC)c1NC1=CC(=O)C(=O)c2ccccc21 | 15.6 µM (inactive) | 19.2 µM (inactive) | 18.4 µM (inactive) | 19.5 µM (inactive) | 15.1 µM (inactive) | 19.8 µM (inactive) | 15.4 µM (inactive) | 2.84 µM (inactive) | 22.5 µM (inactive) | 13 µM (inactive) | 19.5 µM (inactive) | 15.3 µM (inactive) | 15 µM (inactive) | 14 µM (inactive) |  | 12.4 µM (inactive) | 19.4 µM (inactive) | 23.9 µM (inactive) |
| N/C(=N/O)N/N=C\c1cc(Cl)cc(Cl)c1O | 7.48 µM (inactive) | 0.347 µM (active) | 1.36 µM (inactive) | 0.615 µM (active) | 6.97 µM (inactive) | 5.57 µM (inactive) | 6.65 µM (inactive) | 5.41 µM (inactive) | 1.4 µM (inactive) | 0.791 µM (active) | 1.64 µM (inactive) | 2.87 µM (inactive) | 4.34 µM (inactive) | 0.42 µM (active) | 0.708 µM (active) |  |  |  |
| CN1C=C(C(N)=O)Cc2ccsc21 | > 100 µM (inactive) | > 100 µM (inactive) | > 100 µM (inactive) | > 100 µM (inactive) | > 100 µM (inactive) | > 100 µM (inactive) | > 100 µM (inactive) | > 100 µM (inactive) | > 100 µM (inactive) | > 100 µM (inactive) | > 100 µM (inactive) | > 100 µM (inactive) | > 100 µM (inactive) | > 100 µM (inactive) |  | > 100 µM (inactive) | > 100 µM (inactive) |  |
| COC(=O)C1=CC2OC1(C)CCC2=O (stereo unspecified) | 80.5 µM (inactive) | > 100 µM (inactive) | 85.3 µM (inactive) | > 100 µM (inactive) | > 100 µM (inactive) | > 100 µM (inactive) | > 100 µM (inactive) | > 100 µM (inactive) | > 100 µM (inactive) | > 100 µM (inactive) | > 100 µM (inactive) | > 100 µM (inactive) | > 100 µM (inactive) | > 10 µM (inactive) | > 100 µM (inactive) |  | > 100 µM (inactive) | > 100 µM (inactive) |
| N/N=c1\c2ccccc2c2ccc3c4ccccc4/c(=N\N)c3c12 | > 100 µM (inactive) | > 100 µM (inactive) | > 100 µM (inactive) | > 100 µM (inactive) | > 100 µM (inactive) | > 100 µM (inactive) | > 100 µM (inactive) |  | > 100 µM (inactive) | > 100 µM (inactive) | > 100 µM (inactive) | > 100 µM (inactive) | > 100 µM (inactive) | > 100 µM (inactive) |  | > 100 µM (inactive) | > 100 µM (inactive) |  |
| CCOc1cccc2[s+]snc12 | 43.9 µM (inactive) | > 100 µM (inactive) | > 100 µM (inactive) | > 100 µM (inactive) | > 100 µM (inactive) | > 100 µM (inactive) | > 100 µM (inactive) | 30.3 µM (inactive) | 98.4 µM (inactive) | > 100 µM (inactive) | 46.8 µM (inactive) | 33.8 µM (inactive) | > 100 µM (inactive) | 40.3 µM (inactive) | 25.2 µM (inactive) |  | 77.4 µM (inactive) | > 100 µM (inactive) |
| CCOC(=O)Nc1ccc(S(=O)(=O)OC)cc1.CCOC(=O)Nc1ccc(S(=O)(=O)OC)cc1.Cc1cn(C2CC(O)C(CO)O2)c(=O)[nH]c1=O | 45.5 µM (inactive) | > 100 µM (inactive) | 10 µM (inactive) | > 100 µM (inactive) | > 100 µM (inactive) | > 100 µM (inactive) | > 100 µM (inactive) | > 100 µM (inactive) | > 100 µM (inactive) | > 100 µM (inactive) | > 100 µM (inactive) |  | > 100 µM (inactive) | > 100 µM (inactive) |  | 69.7 µM (inactive) | > 100 µM (inactive) | > 100 µM (inactive) |
| CCOC(=O)C(C(=O)OCC)c1ccc([N+](=O)[O-])o1 | 4.58 µM (inactive) | 18 µM (inactive) | 15.6 µM (inactive) | > 50 µM (inactive) | 20.3 µM (inactive) | 19.1 µM (inactive) | 17.5 µM (inactive) | 5.73 µM (inactive) | 25.4 µM (inactive) | 20.6 µM (inactive) | 19.9 µM (inactive) | 18.7 µM (inactive) | 14.7 µM (inactive) | 17.9 µM (inactive) | 17.1 µM (inactive) |  | 3.6 µM (inactive) | 16.9 µM (inactive) |
| COc1ccc(NC(=O)C(=O)Cc2ccc([N+](=O)[O-])c([N+](=O)[O-])c2CC(=O)C(=O)Nc2ccc(OC)cc2OC)c(OC)c1 | > 100 µM (inactive) | > 100 µM (inactive) | > 100 µM (inactive) | > 100 µM (inactive) | > 100 µM (inactive) | > 100 µM (inactive) | > 100 µM (inactive) | > 100 µM (inactive) | > 100 µM (inactive) | > 100 µM (inactive) |  | > 100 µM (inactive) | > 100 µM (inactive) | > 100 µM (inactive) |  | > 100 µM (inactive) | > 100 µM (inactive) | > 100 µM (inactive) |

Source: ChEMBL document CHEMBL1201862, “PubChem BioAssay data set” (2004)
